Experimental data from ChEMBL document CHEMBL3217578, “Synthesis of a novel thiophene derivative that induces cancer cell apoptosis through modulation of AKT and MAPK pathways” (Medchemcomm, 2012).
Converted amounts (≈) assume the structure as drawn. The source made the active and inactive calls. No cut-off for these calls is given here.

How the values were obtained:
[1] = (§1) Cytotoxicity against mouse Neuro2a cells after 72 hrs by MTT assay; assay type: functional, cell-based; details: N2a
PC-3 = test: Cytotoxicity against human PC3 cells after 72 hrs by MTT assay; assay type: functional, cell-based; details: PC-3, 72 h
[2] = Cytotoxicity against human HK2 cells after 72 hrs by MTT assay; assay type: cell-based; details: HK-2, 72 h
A-375 = test: Cytotoxicity against human A375 cells after 72 hrs by MTT assay; assay type: functional, cell-based; details: A-375, 72 h
[3] = Cytotoxicity against human MG63 cells after 72 hrs by MTT assay; assay type: functional, cell-based; details: MG-63, 72 h
[4] = Cytotoxicity against human HeLa 229 cells after 72 hrs by MTT assay; assay type: functional, cell-based; details: HeLa 229, 72 h
Neuro2a [5] = test: Inhibition of ERK phosphorylation in mouse Neuro2a cells at 8 ug/ml after 24 hrs by Western blot analysis relative to beta-actin; assay type: cell-based
N2a [6] = test: Cytotoxicity against mouse Neuro2a cells at 8 ug/ml after 24 hrs by MTT assay in presence of NAC; assay type: functional, cell-based
[7] = Cell cycle arrest in mouse Neuro2a cells assessed as accumulation at G0/G1 phase at 4 ug/ml after 72 hrs using propidium iodide staining by flow cytometry analysis (reference value: 41.6%); assay type: functional, cell-based; details: N2a
N2a [8] = test: as §1; assay type: functional, cell-based
N2a [9] = test: Induction of apoptosis in mouse Neuro2a cells assessed as DNA fragmentation and nuclear condensation after 24 hrs by TUNEL-DAPI co-staining assay; assay type: functional, cell-based
Neuro2a [10] = test: Inhibition of ERK phosphorylation in mouse Neuro2a cells assessed as total protein level at 2 ug/ml after 24 hrs by Western blot analysis relative to beta-actin; assay type: cell-based
[11] = Cell cycle arrest in mouse Neuro2a cells assessed as accumulation at S phase at 4 ug/ml after 72 hrs using propidium iodide staining by flow cytometry analysis (reference value: 48.5%); assay type: functional, cell-based; details: N2a
Neuro2a [12] = test: Inhibition of JNK phosphorylation in mouse Neuro2a cells at 4 ug/ml after 24 hrs by Western blot analysis relative to beta-actin; assay type: cell-based
N2a [13] = test: Induction of apoptosis in mouse Neuro2a cells assessed as activation of caspase-3 using Ac-DEVD-AFC as substrate by fluorometric assay; assay type: functional, cell-based
Neuro2a [14] = test: Inhibition of JNK phosphorylation in mouse Neuro2a cells assessed as total protein level at 4 ug/ml after 24 hrs by Western blot analysis relative to beta-actin; assay type: cell-based
[15] = biological target: RAC-alpha serine/threonine-protein kinase (Mus musculus) (UniProt P31750); test: Inhibition of AKT phosphorylation in mouse Neuro2a cells at 2 ug/ml after 24 hrs by Western blot analysis relative to beta-actin; assay type: cell-based
RAC-alpha serine/threonine-protein kinase (Mus musculus), sequence (P31750 whole entry): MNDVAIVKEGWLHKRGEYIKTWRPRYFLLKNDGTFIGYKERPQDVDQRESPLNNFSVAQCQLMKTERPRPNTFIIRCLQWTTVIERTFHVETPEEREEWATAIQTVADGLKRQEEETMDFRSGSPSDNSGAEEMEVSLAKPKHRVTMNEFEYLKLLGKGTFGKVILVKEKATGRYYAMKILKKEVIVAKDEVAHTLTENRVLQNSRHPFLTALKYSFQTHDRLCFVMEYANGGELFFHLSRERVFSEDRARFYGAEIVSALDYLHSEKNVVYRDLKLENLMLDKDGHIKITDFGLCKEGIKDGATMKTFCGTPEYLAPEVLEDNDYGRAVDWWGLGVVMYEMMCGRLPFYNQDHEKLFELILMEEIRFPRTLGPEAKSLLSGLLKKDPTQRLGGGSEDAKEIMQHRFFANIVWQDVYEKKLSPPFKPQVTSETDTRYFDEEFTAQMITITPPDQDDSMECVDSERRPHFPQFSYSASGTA

N2a [16] = test: Induction of apoptosis in mouse Neuro2a cells assessed as activation of caspase-3 at 8 ug/ml using Ac-[…]-AFC as substrate by fluorometric assay relative to control; assay type: functional
[17] = Cell cycle arrest in mouse Neuro2a cells assessed as accumulation at sub-G1 phase after 72 hrs using propidium iodide staining by flow cytometry analysis; assay type: functional, cell-based; details: N2a
[18] = biological target: RAC-alpha serine/threonine-protein kinase (Mus musculus) (UniProt P31750); test: Inhibition of AKT phosphorylation in mouse Neuro2a cells assessed as total protein level at 2 ug/ml after 24 hrs by Western blot analysis relative to beta-actin; assay type: cell-based
Neuro2a [19] = test: Inhibition of ERK phosphorylation in mouse Neuro2a cells assessed as total protein level at 8 ug/ml after 24 hrs by Western blot analysis relative to beta-actin; assay type: cell-based
Neuro2a [20] = test: Inhibition of ERK phosphorylation in mouse Neuro2a cells at 2 ug/ml after 24 hrs by Western blot analysis relative to beta-actin; assay type: cell-based
[21] = Cell cycle arrest in mouse Neuro2a cells assessed as accumulation at G0/G1 phase at 2 ug/ml after 72 hrs using propidium iodide staining by flow cytometry analysis (reference value: 41.6%); assay type: functional, cell-based; details: N2a
Neuro2a [22] = test: Inhibition of JNK phosphorylation in mouse Neuro2a cells assessed as total protein level at 8 ug/ml after 24 hrs by Western blot analysis relative to beta-actin; assay type: cell-based
N2a [23] = test: Induction of apoptosis in mouse Neuro2a cells assessed as activation of caspase-8 using IETD-AFC as substrate by fluorometric assay; assay type: functional, cell-based
N2a [24] = test: Induction of apoptosis in mouse Neuro2a cells assessed as activation of caspase-9 at 4 ug/ml using Ac-LEHD-AFC as substrate by fluorometric assay relative to control; assay type: functional
[25] = biological target: RAC-alpha serine/threonine-protein kinase (Mus musculus) (UniProt P31750); test: Inhibition of AKT phosphorylation in mouse Neuro2a cells assessed as total protein level at 4 ug/ml after 24 hrs by Western blot analysis relative to beta-actin; assay type: cell-based
[26] = biological target: RAC-alpha serine/threonine-protein kinase (Mus musculus) (UniProt P31750); test: Inhibition of AKT phosphorylation in mouse Neuro2a cells after 24 hrs by Western blot analysis; assay type: cell-based
Neuro2a [27] = test: Inhibition of JNK phosphorylation in mouse Neuro2a cells assessed as total protein level at 2 ug/ml after 24 hrs by Western blot analysis relative to beta-actin; assay type: cell-based
[28] = biological target: RAC-alpha serine/threonine-protein kinase (Mus musculus) (UniProt P31750); test: Inhibition of AKT phosphorylation in mouse Neuro2a cells at 8 ug/ml after 24 hrs by Western blot analysis relative to beta-actin; assay type: cell-based
[29] = Cell cycle arrest in mouse Neuro2a cells assessed as accumulation at S phase at 8 ug/ml after 72 hrs using propidium iodide staining by flow cytometry analysis (reference value: 48.5%); assay type: functional, cell-based; details: N2a
[30] = biological target: RAC-alpha serine/threonine-protein kinase (Mus musculus) (UniProt P31750); test: Inhibition of AKT phosphorylation in mouse Neuro2a cells assessed as total protein level after 24 hrs by Western blot analysis; assay type: cell-based
N2a [31] = test: Induction of apoptosis in mouse Neuro2a cells assessed as reduction of ROS production after 3 hrs by DCF fluorescence assay; assay type: functional, cell-based
N2a [32] = test: Induction of apoptosis in mouse Neuro2a cells assessed as activation of caspase-9 using Ac-LEHD-AFC as substrate by fluorometric assay; assay type: functional, cell-based
[33] = Cell cycle arrest in mouse Neuro2a cells assessed as accumulation at G2/M phase at 8 ug/ml after 72 hrs using propidium iodide staining by flow cytometry analysis (reference value: 9.9%); assay type: functional, cell-based; details: N2a
[34] = Cell cycle arrest in mouse Neuro2a cells assessed as accumulation at S phase at 2 ug/ml after 72 hrs using propidium iodide staining by flow cytometry analysis (reference value: 48.5%); assay type: functional, cell-based; details: N2a
[35] = biological target: RAC-alpha serine/threonine-protein kinase (Mus musculus) (UniProt P31750); test: Inhibition of AKT phosphorylation in mouse Neuro2a cells assessed as total protein level at 8 ug/ml after 24 hrs by Western blot analysis relative to beta-actin; assay type: cell-based
[36] = Cell cycle arrest in mouse Neuro2a cells assessed as accumulation at G2/M phase at 4 ug/ml after 72 hrs using propidium iodide staining by flow cytometry analysis (reference value: 9.9%); assay type: functional, cell-based; details: N2a
[37] = Cell cycle arrest in mouse Neuro2a cells assessed as accumulation at sub-G1 phase at 4 ug/ml after 72 hrs using propidium iodide staining by flow cytometry analysis (reference value: 4.7%); assay type: functional, cell-based; details: N2a
Neuro2a [38] = test: Inhibition of JNK phosphorylation in mouse Neuro2a cells assessed as total protein level at 2 to 8 ug/ml after 24 hrs by Western blot analysis; assay type: cell-based
[39] = biological target: T1, MAP kinase p38 (Mus musculus) (UniProt P47811+O08911+Q9WUI1+Q9Z1B7); test: Inhibition of p38 phosphorylation in mouse Neuro2a cells assessed as total protein level at 2 ug/ml after 24 hrs by Western blot analysis relative to beta-actin; assay type: cell-based
[40] = biological target: T1, MAP kinase p38 (Mus musculus); test: Inhibition of p38 phosphorylation in mouse Neuro2a cells assessed as total protein level at 8 ug/ml after 24 hrs by Western blot analysis relative to beta-actin; assay type: cell-based
[41] = biological target: T1, MAP kinase p38 (Mus musculus); test: Inhibition of p38 phosphorylation in mouse Neuro2a cells at 2 to 8 ug/ml after 24 hrs by Western blot analysis; assay type: cell-based
[42] = Cell cycle arrest in mouse Neuro2a cells assessed as accumulation at sub-G1 phase at 8 ug/ml after 72 hrs using propidium iodide staining by flow cytometry analysis (reference value: 4.7%); assay type: functional, cell-based; details: N2a
Neuro2a [43] = test: Inhibition of ERK phosphorylation in mouse Neuro2a cells at 4 ug/ml after 24 hrs by Western blot analysis relative to beta-actin; assay type: cell-based
[44] = Antioxidant activity assessed as ABTS free radical scavenging activity; assay type: functional; details: TDE = time-dependent effect
Neuro2a [45] = test: Inhibition of ERK phosphorylation in mouse Neuro2a cells assessed as total protein level at 4 ug/ml after 24 hrs by Western blot analysis relative to beta-actin; assay type: cell-based
[46] = Cell cycle arrest in mouse Neuro2a cells assessed as accumulation at G0/G1 phase at 8 ug/ml after 72 hrs using propidium iodide staining by flow cytometry analysis (reference value: 41.6%); assay type: functional, cell-based; details: N2a
[47] = biological target: T1, MAP kinase p38 (Mus musculus); test: Inhibition of p38 phosphorylation in mouse Neuro2a cells assessed as total protein level at 4 ug/ml after 24 hrs by Western blot analysis relative to beta-actin; assay type: cell-based
Neuro2a [48] = test: Inhibition of JNK phosphorylation in mouse Neuro2a cells at 2 ug/ml after 24 hrs by Western blot analysis relative to beta-actin; assay type: cell-based
[49] = Cell cycle arrest in mouse Neuro2a cells assessed as accumulation at sub-G1 phase at 2 ug/ml after 72 hrs using propidium iodide staining by flow cytometry analysis (reference value: 4.7%); assay type: functional, cell-based; details: N2a
Neuro2a [50] = test: Inhibition of JNK phosphorylation in mouse Neuro2a cells at 8 ug/ml after 24 hrs by Western blot analysis relative to beta-actin; assay type: cell-based
[51] = biological target: RAC-alpha serine/threonine-protein kinase (Mus musculus) (UniProt P31750); test: Inhibition of AKT phosphorylation in mouse Neuro2a cells at 4 ug/ml after 24 hrs by Western blot analysis relative to beta-actin; assay type: cell-based
[52] = Cell cycle arrest in mouse Neuro2a cells assessed as accumulation at G2/M phase at 2 ug/ml after 72 hrs using propidium iodide staining by flow cytometry analysis (reference value: 9.9%); assay type: functional, cell-based; details: N2a

With `O=C(CCC(=O)c1cccs1)c1cccs1` the IC50 [1] was 343 µg/mL (≈ 1370 µM), the IC50 (PC-3) was greater than 400 µg/mL and the IC50 [2] was greater than 400 µg/mL. The IC50 (A-375) was 115 µg/mL (≈ 459 µM), the IC50 [3] was 366 µg/mL (≈ 1460 µM) and the IC50 [4] was greater than 400 µg/mL.

With `Oc1ccc(-n2c(-c3cccs3)ccc2-c2cccs2)cc1` the fold change (FC) (Neuro2a [5]) was 0, the “growth inhibition (GI)” value (N2a [6]) was “Active” and the Activity [7] was 46.9%. For the same compound, the IC50 [1] was 2.6 µg/mL (≈ 8.04 µM), the “growth inhibition (GI)” value (N2a [8]) was “Dose-dependent effect” and the Activity (N2a [9]) was “Dose-dependent effect”. The fold change (FC) (Neuro2a [10]) was 1, the Activity [11] was 42.6% and the fold change (FC) (Neuro2a [12]) was 1.6. The Activity (N2a [13]) was “Dose-dependent effect”, the IC50 (PC-3) was 51.3 µg/mL (≈ 159 µM) and the fold change (FC) (Neuro2a [14]) was 1. The fold change (FC) [15] was 0.8, the “fold change (FC)” value (N2a [16]) was 1.5 and the Activity [17] was “Dose-dependent effect”. It also gave a fold change (FC) [18] of 0.8, an IC50 [2] of 73.4 µg/mL (≈ 227 µM) and a fold change (FC) (Neuro2a [19]) of 0.6. The fold change (FC) (Neuro2a [20]) was 0, the Activity [21] was 39.9% and the fold change (FC) (Neuro2a [22]) was 0.9. For the same compound, the Activity (N2a [23]) was “Dose-dependent effect”, the “fold change (FC)” value (N2a [24]) was 1.4 and the fold change (FC) [25] was 0.7. For the same compound, the inhibition [26] was “Dose-dependent effect”, the fold change (FC) (Neuro2a [27]) was 1 and the fold change (FC) [28] was 0.1. The Activity [29] was 38.9%, the inhibition [30] was “Dose-dependent effect” and the Activity (N2a [31]) was “Dose-dependent effect”. For the same compound, the Activity (N2a [32]) was “Dose-dependent effect”, the Activity [33] was 15.7% and the Activity [34] was 48.5%. For the same compound, the fold change (FC) [35] was 0.4, the IC50 (A-375) was 27.6 µg/mL (≈ 85.3 µM) and the Activity [36] was 10.5%. The Activity [37] was 19.2%, the inhibition (Neuro2a [38]) was “inactive” and the fold change (FC) [39] was 1.2. For the same compound, the fold change (FC) [40] was 1.7, the inhibition [41] was “inactive” and the IC50 [3] was 39.6 µg/mL (≈ 122 µM). The Activity [42] was 26.3%, the IC50 [4] was 36.4 µg/mL (≈ 113 µM) and the fold change (FC) (Neuro2a [43]) was 0. The Activity [44] was “tde”, the fold change (FC) (Neuro2a [45]) was 0.6 and the Activity [46] was 44.4%. For the same compound, the fold change (FC) [47] was 1.6, the fold change (FC) (Neuro2a [48]) was 0.9 and the Activity [49] was 9.1%. The fold change (FC) (Neuro2a [50]) was 2.1, the fold change (FC) [51] was 0.3 and the Activity [52] was 11.6%.
